Earlier results as cited in patent US20020112260A1, “Plants having resistance to multiple herbicides and its use” (Asgrow Seed Company LLC, priority 1997, published 2002).

Test system: soybeans
Details: non-STS soybeans

| SMILES | crop injury |
| --- | --- |
| COc1cc(Cl)nc(NC(=O)NS(=O)(=O)c2ccccc2C(=O)O)n1 [chlorimuron] | can cause significant crop injury |
| COc1nc(C)nc(NC(=O)NS(=O)(=O)c2ccsc2C(=O)O)n1 [thifensulfuron] | can cause significant crop injury |
